We go through 1 compound from paper PMC5688156, “The natural product carolacton inhibits folate-dependent C1 metabolism by targeting FolD/MTHFD” (Nature Communications, 2017).

Where two headings read alike, the source gives them in different places.

In one test the target is T1, hsMTHFD1_DC (Homo sapiens, UniProt P11586).
T1 construct: hsMTHFD1 DC301; His-tag (TEV-cleavable, vector pHis-TEV); made in house; host or cells: E. coli BL21 (DE3)
T1 sequence (P11586 2-291 limits assumed): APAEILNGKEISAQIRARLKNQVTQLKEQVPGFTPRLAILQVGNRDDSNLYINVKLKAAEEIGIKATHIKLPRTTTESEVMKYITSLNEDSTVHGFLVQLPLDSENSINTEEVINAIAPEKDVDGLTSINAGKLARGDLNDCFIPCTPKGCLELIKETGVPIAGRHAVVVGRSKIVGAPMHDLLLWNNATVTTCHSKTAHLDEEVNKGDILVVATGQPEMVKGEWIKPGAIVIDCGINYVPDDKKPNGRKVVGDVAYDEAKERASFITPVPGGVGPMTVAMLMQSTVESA
As to the kind of experiment: hsMTHFD1_DC dehydrogenase (DH) enzyme assay. It is filed as biochemical. Particulars: hsMTHFD1 DC301. The procedure:
(§1) (6R,S)-5,10-Methylene-5,6,7,8-tetrahydrofolic acid ((6R,S)-5,10-CH2-THF) calcium salt and (6R,S)-5,10-Methenyl-5,6,7,8-tetrahydrofolic acid ((6R,S)-5,10-CH=THF) chloride were purchased from Schircks Laboratories (Bauma, Switzerland) and used as substrates for FolD dehydrogenase and cyclohydrolase enzyme assays, respectively. Only the R-isomer, which accounts for 50% of (6R,S)-5,10-CH2-THF and (6R,S)-5,10-CH=THF, respectively, is used by the enzyme. (6R,S)-5,10-CH2-THF was dissolved in N2-spargeled basic buffer (50 mM Tris-HCl (pH 8.0), 100 mM β-mercaptoethanol) as described by Varshney et al.[25]. (6R,S)-5,10-CH=THF was dissolved in DMSO as a 100 mM stock solution.
Because FolD is a bifunctional enzyme, dehydrogenase and cyclohydrolase activities were determined for FolD enzyme kinetics, respectively. The dehydrogenase activity of FolD was assayed for its substrate 5,10-CH2-THF and cofactor NADP^+ (in the case of MTHFD2, NAD^+ was used as the cofactor) based on monitoring the formation of 5,10-CH=THF, while the cyclohydrolase activity of FolD was determined for its substrate 5,10-CH=THF by monitoring the hydrolysis of […]. The enzyme kinetics for the dehydrogenase activity of all FolDs except hsMTHFD1_DC were determined at 30 °C in 50 mM Tris-HCl (pH 7.5), 30 mM β-mercaptoethanol. The hsMTHFD1_DC dehydrogenase activity was measured in 25 mM MOPS (pH 7.3), 30 mM β-mercaptoethanol at 30 °C. To measure the enzyme kinetic constants for 5,10-CH2-THF, for example in the case of ecFolD, the NADP concentration was fixed at 1 mM and the concentration of 5,10-CH2-THF varied from 5 to 1500 μM (R-isomer). Similarly, to measure the kinetic constants of ecFolD for NADP^+, the concentration of 5,10-CH2-THF (R-isomer) was fixed at 1 mM and the concentration of NADP^+ varied from 10 to 1500 μM. For different FolDs, the varied concentration range of substrates could be different. […] To monitor the formation of 5,10-CH=THF, the absorbance of the reaction mixture was monitored at 350 nm in micro UV cuvettes (BRAND, Essex, Connecticut, USA). The concentration of 5,10-CH=THF produced in the reaction was determined using an extinction co-efficient of 0.0249 μM^−1 cm^−1. […] The consumption of 5,10-CH=THF was measured by recording the absorbance of the reactions at 355 nm using the TECAN Infinite 200 PRO equipped with a monochromator. […] The inhibition constants (K i) of carolacton on FolD were determined by measuring the apparent K m when adding certain amounts of carolacton to the enzyme reactions. […] To compare the inhibition effects of carolacton between the different FolDs, the half maximal inhibitory concentration (IC50) of carolacton on the same amount of enzyme was determined for FolDs involved in this study. […]

Another test addresses T2, ecFolD G8S (Escherichia coli, UniProt P24186, G8S).
T2 construct: His-tag (TEV-cleavable, vector pHis-TEV); made in house; host or cells: E. coli BL21 (DE3)
In words: ecFolD G8S mutant dehydrogenase (DH) enzyme assay. It is filed as biochemical, E. coli. The procedure: as §1
Because FolD is a bifunctional enzyme, dehydrogenase and cyclohydrolase activities were determined for FolD enzyme kinetics, respectively. The dehydrogenase activity of FolD was assayed for its substrate 5,10-CH2-THF and cofactor NADP^+ (in the case of MTHFD2, NAD^+ was used as the cofactor) based on monitoring the formation of 5,10-CH=THF, while the cyclohydrolase activity of FolD was determined for its substrate 5,10-CH=THF by monitoring the hydrolysis of […]. The enzyme kinetics for the dehydrogenase activity of all FolDs except hsMTHFD1_DC were determined at 30 °C in 50 mM Tris-HCl (pH 7.5), 30 mM β-mercaptoethanol. […]

The next test concerns E. coli DSM-1116 (WT). As to the kind of experiment: MIC determination on E. coli DSM-1116 (WT). It is filed as cell-based. The settings on record: Escherichia coli. The procedure:
The determination of MICs was performed as described elsewhere. In brief, E. coli strains were treated with carolacton in serial dilution in either the presence or absence of sub-inhibitory concentrations of polymyxin B nonapeptide (PMBN; 3 µg/mL) and/or phenylalanine–arginine β-napthylamide (PAβN; 20 µg/mL) for 16 h at 37 °C in Mueller–Hinton broth. The MICs were assessed by visual inspection of the plates.

On to `CO[C@H](CC(=O)O)[C@@H](C)C(=O)[C@H](C)/C=C(\C)[C@H]1OC(=O)[C@H](O)[C@H](O)/C=C/[C@H](C)CCC[C@@H]1C` [carolacton], for which the IC50 – broadly, the concentration needed to halve the response being measured – at hsMTHFD1_DC (10 nM enzyme, read-out: IC50, carolacton inhibition on DH activity) amounted to 38 nM; against ecFolD G8S, 86.5 nM. For the same compound, the IC80 (in general, the concentration needed for an effect of 80%) on hsMTHFD1_DC (10 nM enzyme, read-out: IC80, carolacton inhibition on DH activity) was determined as 77.6 nM; on ecFolD G8S (read-out: IC80, carolacton inhibition on DH activity), 737 nM. The Ki (in general, the dissociation constant of the complex between target and ligand, obtained from inhibition or displacement) was determined as 5.93 nM at hsMTHFD1_DC (vs 5,10-CH2-THF, read-out: Ki (5,10-CH2-THF), carolacton inhibition on DH activity) and 58.7 nM on hsMTHFD1_DC (vs NADP+, read-out: Ki (NADP+), carolacton inhibition on DH activity). The MIC (as a rule, the lowest concentration that inhibits growth of the organism) in the test with E. coli DSM-1116 (WT) (DSM1116, + 3 µg/mL PMBN + 20 µg/mL PAβN, no full inhibition) is 2 µg/mL; in the test with E. coli DSM-1116 (WT) (DSM1116, + 3 µg/mL PMBN, cation-adjusted Mueller–Hinton broth), at least 64 µg/mL; in the test on E. coli DSM-1116 (WT) (DSM1116, + 20 µg/mL PAβN (efflux inhibitor), no full inhibition) it was 2 µg/mL; in the test on E. coli DSM-1116 (WT) (DSM1116, no additive, cation-adjusted Mueller–Hinton broth), over 64 µg/mL.
